The values that follow come from PubChem BioAssay AID1745844 (Carcinogenic Potency Database (CPDB), 2022).

For this data set, the system named is rodent lifetime carcinogenesis bioassay, tumor incidence TD50. Put plainly: carcinogenic potency in animals, long-term in vivo studies, CPDB compilation (AID 1745844).

“And” between values parts separate entries of the source, which are not always exact repeats. Identical values can stand only once. The source made the active and inactive calls. How the calls were made is not given here.

Consider `O=[N+]([O-])c1ccc(-c2cnc3ccccn23)o1`, for which the carcinogen call reads like this: (mouse, strain CTM, females, in feed, site: any site (literature study), lesion: several types, types named in the paper, dosed 40 weeks, study length 79 weeks) “positive”; (mouse, strain CTM, females, in feed, site: liver, lesion: hepatoma, dosed 40 weeks, study length 79 weeks) “negative (inactive)”; (mouse, strain CTM, females, in feed, site: lung, lesion: one or several types, types not named, dosed 40 weeks, study length 79 weeks) “negative (inactive)”; (mouse, strain CTM, males, in feed, site: liver, lesion: hepatoma, dosed 40 weeks, study length 73 weeks) “negative (inactive)”. The TD50 (mouse, strain CTM, females, in feed, site: several sites, sites named in the paper, lesion: carcinoma, dosed 40 weeks, study length 79 weeks) is 21.6 mg/kg/day; the TD50 (mouse, strain CTM, females, in feed, site: several sites, sites named in the paper, lesion: papilloma, dosed 40 weeks, study length 79 weeks) was 117 mg/kg/day; the TD50 (mouse, strain CTM, females, in feed, site: thyroid gland, lesion: lymphosarcoma, dosed 40 weeks, study length 79 weeks) stood at 781 mg/kg/day; the TD50 (mouse, strain CTM, males, in feed, site: any site (literature study), lesion: several types, types named in the paper, dosed 40 weeks, study length 73 weeks) was 57.1 mg/kg/day; the TD50 (mouse, strain CTM, males, in feed, site: lung, lesion: one or several types, types not named, dosed 40 weeks, study length 73 weeks) was 763 mg/kg/day (inactive); the TD50 (mouse, strain CTM, males, in feed, site: several sites, sites named in the paper, lesion: carcinoma, dosed 40 weeks, study length 73 weeks) is 40.1 mg/kg/day. Besides, the TD50 by setting is: (mouse, strain CTM, males, in feed, site: several sites, sites named in the paper, lesion: papilloma, dosed 40 weeks, study length 73 weeks) 65.8 mg/kg/day; (rat, strain Wistar, females, in feed, site: any site (literature study), lesion: several types, types named in the paper, dosed 40 weeks, study length 89 weeks) 15.8 mg/kg/day; (rat, strain Wistar, females, in feed, site: kidney, lesion: one or several types, types not named, dosed 40 weeks, study length 89 weeks) 116 mg/kg/day; (rat, strain Wistar, females, in feed, site: liver, lesion: hepatoma, dosed 40 weeks, study length 89 weeks) 644 mg/kg/day; (rat, strain Wistar, females, in feed, site: mammary tissue, wider than the gland, lesion: one or several types, types not named, dosed 40 weeks, study length 89 weeks) 33.3 mg/kg/day; (rat, strain Wistar, females, in feed, site: several sites, sites named in the paper, lesion: carcinoma, dosed 40 weeks, study length 89 weeks) 443 mg/kg/day. The TD50 is, setting by setting: (rat, strain Wistar, females, in feed, site: several sites, sites named in the paper, lesion: papilloma, dosed 40 weeks, study length 89 weeks) 27.5 mg/kg/day; (rat, strain Wistar, males, in feed, site: any site (literature study), lesion: several types, types named in the paper, dosed 40 weeks, study length 83 weeks) 11.9 mg/kg/day; (rat, strain Wistar, males, in feed, site: kidney, lesion: one or several types, types not named, dosed 40 weeks, study length 83 weeks) 21.4 mg/kg/day; (rat, strain Wistar, males, in feed, site: liver, lesion: hepatoma, dosed 40 weeks, study length 83 weeks) 959 mg/kg/day; (rat, strain Wistar, males, in feed, site: several sites, sites named in the paper, lesion: carcinoma, dosed 40 weeks, study length 83 weeks) 104 mg/kg/day; (rat, strain Wistar, males, in feed, site: several sites, sites named in the paper, lesion: papilloma, dosed 40 weeks, study length 83 weeks) 43.7 mg/kg/day.

Consider `CC(O)COC(C)(C)C` (configuration not stated), for which the TD50 by setting is: (mouse, strain B6C3F1, females, inhaled, site: any site (literature study), lesion: several types, types named in the paper, dosed 104 weeks, study length 104 weeks) 8120 mg/kg/day; (mouse, strain B6C3F1, females, inhaled, site: liver, lesion: hepatocellular adenoma + hepatoblastoma + hepatocellular carcinoma, dosed 104 weeks, study length 104 weeks) 1780 mg/kg/day; (mouse, strain B6C3F1, females, inhaled, site: liver, lesion: hepatocellular adenoma + hepatocellular carcinoma, dosed 104 weeks, study length 104 weeks) 1780 mg/kg/day; (mouse, strain B6C3F1, females, inhaled, site: liver, lesion: hepatocellular adenoma, dosed 104 weeks, study length 104 weeks) 1780 mg/kg/day; (mouse, strain B6C3F1, males, inhaled, site: any site (literature study), lesion: several types, types named in the paper, dosed 104 weeks, study length 104 weeks) 7930 mg/kg/day; (mouse, strain B6C3F1, males, inhaled, site: liver, lesion: hepatoblastoma, dosed 104 weeks, study length 104 weeks) 9320 mg/kg/day. For the same compound, the TD50 is, setting by setting: (mouse, strain B6C3F1, males, inhaled, site: liver, lesion: hepatocellular adenoma + hepatoblastoma + hepatocellular carcinoma, dosed 104 weeks, study length 104 weeks) 1980 mg/kg/day; (mouse, strain B6C3F1, males, inhaled, site: liver, lesion: hepatocellular adenoma + hepatocellular carcinoma, dosed 104 weeks, study length 104 weeks) 1980 mg/kg/day; (mouse, strain B6C3F1, males, inhaled, site: liver, lesion: hepatocellular adenoma, dosed 104 weeks, study length 104 weeks) 1970 mg/kg/day; (rat, strain Fischer 344, females, inhaled, site: liver, lesion: hepatocellular adenoma + hepatoblastoma + hepatocellular carcinoma, dosed 104 weeks, study length 104 weeks) 10500 mg/kg/day; (rat, strain Fischer 344, males, inhaled, site: any site (literature study), lesion: several types, types named in the paper, dosed 104 weeks, study length 104 weeks) 683 mg/kg/day; (rat, strain Fischer 344, males, inhaled, site: kidney, lesion: tubule adenoma + tubule carcinoma, dosed 104 weeks, study length 104 weeks) 2280 mg/kg/day and 2650 mg/kg/day. In addition, the TD50 is, setting by setting: (rat, strain Fischer 344, males, inhaled, site: kidney, lesion: tubule adenoma, dosed 104 weeks, study length 104 weeks) 4480 mg/kg/day and 3800 mg/kg/day; (rat, strain Fischer 344, males, inhaled, site: liver, lesion: hepatocellular adenoma + hepatoblastoma + hepatocellular carcinoma, dosed 104 weeks, study length 104 weeks) 1450 mg/kg/day; (rat, strain Fischer 344, males, inhaled, site: liver, lesion: hepatocellular adenoma, dosed 104 weeks, study length 104 weeks) 1450 mg/kg/day; (rat, strain Fischer 344, males, inhaled, site: skin, lesion: basal-cell adenoma + basal-cell carcinoma, dosed 104 weeks, study length 104 weeks) 1510 mg/kg/day; (rat, strain Fischer 344, males, inhaled, site: skin, lesion: basal-cell adenoma, dosed 104 weeks, study length 104 weeks) 2070 mg/kg/day. Besides, under “rat, strain Fischer 344, females, inhaled, site: any site (literature study), lesion: several types, types named in the paper, dosed 104 weeks, study length 104 weeks”, the carcinogen call is “negative (inactive)”.

With `Cc1ccc(C)c(C)c1`, the TD50 reads like this: (rat, strain Sprague-Dawley, females, by gavage, site: any site (literature study), lesion: malignant tumor, dosed 104 weeks, study length 123 weeks) 14300 mg/kg/day; (rat, strain Sprague-Dawley, males, by gavage, site: Zymbal's gland, lesion: carcinoma, dosed 104 weeks, study length 123 weeks) 18000 mg/kg/day; (rat, strain Sprague-Dawley, males, by gavage, site: any site (literature study), lesion: malignant tumor, dosed 104 weeks, study length 123 weeks) 13900 mg/kg/day; (rat, strain Sprague-Dawley, males, by gavage, site: any site (literature study), lesion: several types, types named in the paper, dosed 104 weeks, study length 123 weeks) 1940 mg/kg/day; (rat, strain Sprague-Dawley, males, by gavage, site: ear duct, lesion: carcinoma, dosed 104 weeks, study length 123 weeks) 18300 mg/kg/day; (rat, strain Sprague-Dawley, males, by gavage, site: head, lesion: carcinoma, dosed 104 weeks, study length 123 weeks) 4350 mg/kg/day. Further, the TD50 by setting is: (rat, strain Sprague-Dawley, males, by gavage, site: nasal cavity, lesion: esthesioneuroepithelioma, dosed 104 weeks, study length 123 weeks) 18300 mg/kg/day; (rat, strain Sprague-Dawley, males, by gavage, site: oral cavity, lesion: carcinoma, dosed 104 weeks, study length 123 weeks) 18300 mg/kg/day.

As for `Nc1cc(S(=O)(=O)O)cc2cc(S(=O)(=O)O)c(N=Nc3ccc(-c4ccc(N=Nc5c(S(=O)(=O)O)cc6cc(S(=O)(=O)O)cc(N)c6c5O)cc4)cc3)c(O)c12`, the TD50 was 3.21 mg/kg/day (rat, strain Fischer 344, females, in feed, site: any site (literature study), lesion: several types, types named in the paper, dosed 13 weeks, study length 13 weeks); 3.21 mg/kg/day (rat, strain Fischer 344, females, in feed, site: liver, lesion: hepatocellular adenoma + hepatocellular carcinoma + neoplastic nodule, dosed 13 weeks, study length 13 weeks); 3.21 mg/kg/day (rat, strain Fischer 344, females, in feed, site: liver, lesion: hepatocellular carcinoma + neoplastic nodule, dosed 13 weeks, study length 13 weeks); 5.97 mg/kg/day (rat, strain Fischer 344, females, in feed, site: liver, lesion: hepatocellular carcinoma, dosed 13 weeks, study length 13 weeks); 1.18 mg/kg/day (rat, strain Fischer 344, males, in feed, site: any site (literature study), lesion: several types, types named in the paper, dosed 13 weeks, study length 13 weeks); 1.18 mg/kg/day (rat, strain Fischer 344, males, in feed, site: liver, lesion: hepatocellular adenoma + hepatocellular carcinoma + neoplastic nodule, dosed 13 weeks, study length 13 weeks). Also, the TD50 (rat, strain Fischer 344, males, in feed, site: liver, lesion: hepatocellular carcinoma + neoplastic nodule, dosed 13 weeks, study length 13 weeks) is 1.18 mg/kg/day.

For the compound `NC(=O)Cc1cccc2ccccc12`, the TD50 is 956 mg/kg/day (inactive) (mouse, strain B6AKF1, females, oral dosing, site: any site (literature study), lesion: several types, types named in the paper, dosed 76 weeks, study length 76 weeks); 213 mg/kg/day (inactive) (mouse, strain B6C3F1, females, oral dosing, site: any site (literature study), lesion: several types, types named in the paper, dosed 76 weeks, study length 76 weeks); 956 mg/kg/day (inactive) (mouse, strain B6C3F1, females, oral dosing, site: liver, lesion: hepatoma, dosed 76 weeks, study length 76 weeks); 461 mg/kg/day (inactive) (mouse, strain B6C3F1, females, oral dosing, site: lung, lesion: adenoma, dosed 76 weeks, study length 76 weeks); 141 mg/kg/day (inactive) (mouse, strain B6C3F1, males, oral dosing, site: any site (literature study), lesion: several types, types named in the paper, dosed 76 weeks, study length 76 weeks); 316 mg/kg/day (inactive) (mouse, strain B6C3F1, males, oral dosing, site: liver, lesion: hepatoma, dosed 76 weeks, study length 76 weeks). For the same compound, under “mouse, strain B6C3F1, males, oral dosing, site: lung, lesion: adenoma, dosed 76 weeks, study length 76 weeks”, the TD50 is 1010 mg/kg/day (inactive). Moreover, the carcinogen call is “negative (inactive)” (mouse, strain B6AKF1, females, oral dosing, site: liver, lesion: hepatoma, dosed 76 weeks, study length 76 weeks); “negative (inactive)” (mouse, strain B6AKF1, females, oral dosing, site: lung, lesion: adenoma, dosed 76 weeks, study length 76 weeks); “negative (inactive)” (mouse, strain B6AKF1, males, oral dosing, site: any site (literature study), lesion: several types, types named in the paper, dosed 76 weeks, study length 76 weeks); “negative (inactive)” (mouse, strain B6AKF1, males, oral dosing, site: liver, lesion: hepatoma, dosed 76 weeks, study length 76 weeks); “negative (inactive)” (mouse, strain B6AKF1, males, oral dosing, site: lung, lesion: adenoma, dosed 76 weeks, study length 76 weeks).

Usually TD50 stands for the dose at which the toxic effect under study appears in half of the subjects.
